Data published in patent publication US6849612B2, “Oligonucleotide modulation of cell adhesion” (ISIS Pharmaceuticals, Inc., priority 1993, dated 2005).
Strand notation (5' to 3'): a small letter for the sugar, then the base; units joined by * are phosphorothioate-linked, units joined directly phosphodiester-linked; [ ] holds rarer units or linkages, { } end groups; capitals alone tell only the bases. d = 2'-deoxy (DNA)

How the values were obtained:
ICAM-1 [1] = test: ELISA of ICAM-1 cell surface expression in oligonucleotide-pretreated, cytokine-stimulated HUVEC; assay type: cell-based, human; conditions: HUVEC, interleukin-1β; concentration not given
ICAM-1 [2] = test: Immunoprecipitation of 35S-labelled ICAM-1 from A549 cells; assay type: cell-based, human; conditions: 1 μM oligonucleotide, interleukin-1β
Procedure: The specificity of the antisense oligonucleotides ISIS 1570 and ISIS 1939 for ICAM-1 was evaluated by immunoprecipitation of ^35S-labelled proteins. A549 cells were grown to confluence in 25 cm^2 tissue culture flasks and treated with antisense oligonucleotides as described in Example 4. The cells were stimulated with interleukin-1β for 14 hours, washed with methionine-free DMEM plus 10% dialyzed fetal calf serum, and incubated for 1 hour in methionine-free medium containing 10% dialyzed fetal calf serum, 1 μM oligonucleotide and interleukin-1β as indicated. ^35S-Methionine/cysteine mixture (Tran^35S-label, purchased from ICN, Costa Mesa, Calif.) was added to the cells to an activity of 100 μCi/ml and the cells were incubated an additional 2 hours. Cellular proteins were extracted by incubation with 50 mM Tris-HCl pH 8.0, 150 mM NaCl, 1.0% NP-40, 0.5% deoxycholate and 2 mM EDTA (0.5 ml per well) at 4° C. for 30 minutes. The extracts were clarified by centrifugation at 18,000×g for 20 minutes. The supernatants were preadsorbed with 200 μl protein G-Sepharose beads (Bethesda Research Labs, Bethesda Md.) for 2 hours at 4° C., divided equally and incubated with either 5 μg ICAM-1 monoclonal antibody (purchased from AMAC Inc., Westbrook Me.) or HLA-A, B antibody (W6/32, produced by murine hybridoma cells obtained from the American Type Culture Collection, Bethesda, Md.) for 15 hours at 4° C. Immune complexes were trapped by incubation with 200 μl of a 50% suspension of protein G-Sepharose (v/v) for 2 hours at 4° C., washed 5 times with lysis buffer and resolved on an SDS-polyacrylamide gel. Proteins were detected by autoradiography.

[3] = test system: adherence of HL-60 cells to human umbilical vein endothelial cells; test: Cell adherence assay: DMSO differentiated HL-60 cells to TNF treated HUVEC; assay type: cell-based; conditions: TNF-α stimulated HUVEC, Example 11; control 19%
Procedure: Target cells are grown as a monolayer in a multiwell plate, treated with oligonucleotide followed by cytokine. The adhering cells are then added to the monolayer cells and incubated for 30 to 60 minutes at 37° C. and washed to remove nonadhering cells. Cells adhering to the monolayer may be determined either by directly counting the adhering cells or prelabeling the cells with a radioisotope such as ^51Cr and quantitating the radioactivity associated with the monolayer as described. Dustin and Springer, J. Cell Biol. 1988, 107, 321-331. Antisense oligonucleotides may target either ICAM-1, VCAM-1 or ELAM-1 in the assay.
An example of the effects of antisense oligonucleotides targeting ICAM-1 mRNA on the adherence of DMSO differentiated HL-60 cells to tumor necrosis factor treated human umbilical vein endothelial cells is shown in FIG. 7. Human umbilical vein endothelial cells were grown to 80% confluence in 12 well plates. The cells were treated with 2 μM oligonucleotide diluted in Opti-MEM containing 8 μM DOTMA for 4 hours at 37° C. The medium was removed and replaced with fresh endothelial cell growth medium (EGM-UV) containing 2 μM of the indicated oligonucleotide and incubated 4 hours at 37° C. Tumor necrosis factor, 1 ng/ml, was added to cells as indicated and cells incubated for an additional 19 hours. The cells were washed once with EGM-UV and 1.6×10^6 HL-60 cells differentiated for 4 days with 1.3% DMSO added. The cells were allowed to attach for 1 hour at 37° C. and gently washed 4 times with Dulbecco's phosphate-buffered saline (D-PBS) warmed to 37° C. Adherent cells were detached from the monolayer by addition of 0.25 ml of cold (4EC) phosphate-buffered saline containing 5 mM EDTA and incubated on ice for 5 minutes. The number of cells removed by treatment with EDTA was determined by counting with a hemocytometer. Endothelial cells detached from the monolayer by EDTA treatment could easily be distinguished from HL-60 cells by morphological differences. In the absence of tumor necrosis factor, 3% of the HL-60 cells bound to the endothelial cells. Treatment of the endothelial cell monolayer with 1 ng/ml tumor necrosis factor increased the number of adhering cells to 59% of total cells added (FIG. 7).
Human umbilical vein endothelial (HUVEC) cells were grown and treated with oligonucleotides as in Example 4. Cells were treated with either ISIS 1939, ISIS 1940, or the control oligonucleotide ISIS 1821 for 4 hours, then stimulated with TNF-α for 20 hours. Basal HUVEC minimally bound HL-60 cells, while TNF-stimulated HUVEC bound 19% of the total cells added. Pretreatment of the HUVEC monolayer with 0.3 ìM ISIS 1939 reduced the adherence of HL-60 cells to basal levels, as shown in FIG. 11.

[4] = test system: complementary DNA sequences (ICAM-1 target sites); test: Tm of oligonucleotide hybridized to complementary DNA; assay type: binding, human; conditions: 4 μM each strand, 100 mM Na+, 10 mM phosphate, 0.1 mM EDTA, pH 7.0; phosphorothioate vs complementary phosphodiester DNA
Text: The antisense oligonucleotides (synthesized as phosphorothioates) were hybridized to their complementary DNA sequences (synthesized as phosphodiesters). […] Tm's and free energies of duplex formation were obtained from fits of data to a two-state model with linear sloping baselines ([…]. and D. H. […] Results are averages of at least three experiments.

ICAM-1 [5] = test: ELISA screening for ICAM-1 expression in interleukin-1β-stimulated cells (HUVEC and A549); assay type: cell-based, human; conditions: interleukin-1β-stimulated cells, two cell lines (HUVEC, A549)
[6] = test system: corneal allograft rejection; test: Rat corneal allograft rejection (ACI donor to Lewis recipient); assay type: in vivo

For “ISIS 1558: P=O oligonucleotide, human ICAM-1 AUG Codon (64-81), SEQ ID NO 1, TGGGAGCCATAGCGAGGC (unmodified DNA)”, the “inhibition of ICAM-1 expression” value (ICAM-1 [1]) was “did not inhibit expression of ICAM-1”.

For “ISIS 1940: P=S, human ICAM-1 3′-Untranslated (2975-2994), polyadenylation signal, SEQ ID NO 16, TTGAGAAAGCTTTATTAACT (antisense dT*dT*dG*dA*dG*dA*dA*dA*dG*dC*dT*dT*dT*dA*dT*dT*dA*dA*dC*dT)”, the “ICAM-1 synthesis” value (ICAM-1 [2]) was “did not significantly reduce ICAM-1 synthesis”, the “percentage of HL-60 cells adhering” value [3] was 9% and the Tm [4] was < 50 °C. For the same substance, the “inhibition of ICAM-1 expression, relative activity in words” value (ICAM-1 [5]) was “did not inhibit ICAM-1 expression”.

“ISIS 9125: rat ICAM-1 antisense, AGGGCCACTGCTCGTCCACA, all 2′-deoxyphosphorothioate (SEQ ID NO: 86) (antisense dA*dG*dG*dG*dC*dC*dA*dC*dT*dG*dC*dT*dC*dG*dT*dC*dC*dA*dC*dA)” was tested, and the “corneal edema vs OPTISOL alone group” value ([6]; day 3 post-surgery) was “more corneal edema”, the “grading for cornea opacity and neovascularization, better than OPTISOL alone group” value ([6]; day 3 post-surgery) was 50% and the “average days to rejection” value ([6]; donor corneas incubated 24 hours in OPTISOL plus 400 μg/ml oligonucleotide, OPTISOL alone 4.80 days) was 6.33 days. For the same substance, the “range of days to rejection” value ([6]; donor corneas incubated 24 hours in OPTISOL plus oligonucleotide) was 6 to 10 days and the “increase of days to rejection” value ([6]; over the 24 hour OPTISOL incubation control group) was 25%.
